Data on two molecules can be found in ChEMBL document CHEMBL1759948, “Use of the NEO strategy (Nucleophilic addition/Epoxide Opening) for the synthesis of a new C-galactoside ester analogue of KRN 7000” (2011).

What all share (type): functional
For assay [1], the species on record is Mus musculus. Put plainly: Induction of IFN-gamma production in BALB/c mouse after 6 hrs by ELISA. Background: In an ELISA, binding on a coated surface is turned into a signal by an enzyme label.
For assay [2], the species on record is Mus musculus. The assay can be described thus: Induction of IL-4 production in BALB/c mouse after 6 hrs by ELISA.
Assay [3] is filed under the species Mus musculus. The assay can be described thus: Ratio of induction of IFN-gamma production to induction of IL-4 production in BALB/c mouse after 6 hrs.

As to `CCCCCCCCCCCCCCCCCCCCCCCCCC(=O)O[C@H](CCCCCCCCCCCCCC)[C@@H](O)[C@@H](O)CC[C@H]1O[C@H](CO)[C@H](O)[C@H](O)[C@H]1O`, the Activity in the assay listed under Mus musculus [1] was 90 pg/mL; in the assay listed under Mus musculus [2] it was 83 pg/mL. Also, the Ratio in the assay filed under Mus musculus [3] was found to be 1.37.

For the molecule `CCCCCCCCCCCCCCCCCCCCCCCCCC(=O)N[C@@H](CO[C@H]1O[C@H](CO)[C@H](O)[C@H](O)[C@H]1O)[C@H](O)[C@H](O)CCCCCCCCCCCCCC` [RGI-7000], the Activity in the assay listed under Mus musculus [1] came to 12145 pg/mL; in the assay listed under Mus musculus [2], 1450 pg/mL. Further, the Ratio in the assay filed under Mus musculus [3] was found to be 8.35.
